Experimental data reported in ChEMBL document CHEMBL1157642, “2-Amino-5-benzoyl-4-phenylthiazoles: Development of potent and selective adenosine A1 receptor antagonists” (Bioorg Med Chem, 2010).
Substitutions are numbered along the chain they refer to.

Columns and labels:
Adenosine receptor A1 [1] = molecular target: T1, Adenosine receptor A1 (Rattus norvegicus, UniProt P25099)
T1 sequence (P25099 whole entry): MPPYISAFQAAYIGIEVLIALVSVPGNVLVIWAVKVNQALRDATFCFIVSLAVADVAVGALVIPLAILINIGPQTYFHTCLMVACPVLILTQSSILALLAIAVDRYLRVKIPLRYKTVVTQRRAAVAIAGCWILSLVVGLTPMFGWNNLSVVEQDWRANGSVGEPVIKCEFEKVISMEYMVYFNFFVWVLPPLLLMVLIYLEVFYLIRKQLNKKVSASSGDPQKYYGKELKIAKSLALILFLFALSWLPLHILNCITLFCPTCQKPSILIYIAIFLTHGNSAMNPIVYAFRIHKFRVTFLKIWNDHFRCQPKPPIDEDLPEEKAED

Adenosine receptor A2a [2] = molecular target: T2, Adenosine receptor A2a (Rattus norvegicus, UniProt P30543)
[3] = molecular target: T3, Adenosine receptor A1 (Rattus norvegicus) (UniProt P25099); assay: Displacement of [3H]CCPA from adenosine A1 receptor in rat brain cortex membrane at 1 uM; format: cell membranes
T3 sequence (whole entry): T1 sequence (P25099 whole entry)

Adenosine receptor A3 [4] = molecular target: T4, Adenosine receptor A3 (Homo sapiens, UniProt P0DMS8); assay: biochemical
T4 sequence (P0DMS8 whole entry): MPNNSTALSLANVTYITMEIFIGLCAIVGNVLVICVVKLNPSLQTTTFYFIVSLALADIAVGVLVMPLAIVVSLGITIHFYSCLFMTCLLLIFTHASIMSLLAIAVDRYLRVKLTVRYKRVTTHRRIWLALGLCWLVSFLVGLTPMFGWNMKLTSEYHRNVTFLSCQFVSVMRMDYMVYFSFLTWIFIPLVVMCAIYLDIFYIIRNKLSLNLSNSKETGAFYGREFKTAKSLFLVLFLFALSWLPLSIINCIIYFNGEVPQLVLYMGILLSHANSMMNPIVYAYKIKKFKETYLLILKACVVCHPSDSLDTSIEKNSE

[5] = molecular target: T5, Adenosine receptor A3 (Homo sapiens) (UniProt P0DMS8); assay: Displacement of [3H]PSB-11 from human adenosine A3 receptor expressed in CHO cells at 1 uM; format: cell-based
T5 sequence (whole entry): T4 sequence (P0DMS8 whole entry)

Adenosine receptor A2b = molecular target: T6, Adenosine receptor A2b (Homo sapiens, UniProt P29275); assay: Displacement of [3H]PSB-603 from human adenosine A2B receptor expressed in CHO cells; format: cell-based
T6 sequence (P29275 whole entry): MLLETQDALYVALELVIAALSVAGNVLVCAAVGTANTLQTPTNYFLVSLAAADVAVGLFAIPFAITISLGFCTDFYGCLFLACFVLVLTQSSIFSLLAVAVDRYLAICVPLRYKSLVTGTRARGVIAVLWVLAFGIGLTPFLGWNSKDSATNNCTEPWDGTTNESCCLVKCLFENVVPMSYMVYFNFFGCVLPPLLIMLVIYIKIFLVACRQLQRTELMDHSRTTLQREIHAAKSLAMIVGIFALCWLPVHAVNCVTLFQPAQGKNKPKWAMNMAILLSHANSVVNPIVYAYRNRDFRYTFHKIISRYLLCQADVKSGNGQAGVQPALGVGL

[6] = molecular target: Adenosine receptor A2a (Rattus norvegicus) (UniProt P30543); assay: Displacement of [3H]MSX2 from adenosine A2A receptor in rat brain striatum membrane at 1 uM; format: cell membranes
[7] = molecular target: T7, Adenosine receptor A2b (Homo sapiens) (UniProt P29275); assay: Displacement of [3H]PSB-603 from human adenosine A2B receptor expressed in CHO cells at 1 uM; format: cell-based
T7 sequence (whole entry): T6 sequence (P29275 whole entry)

Adenosine receptor A1 [8] = molecular target: T8, Adenosine receptor A1 (Homo sapiens, UniProt P30542); assay: Binding affinity to human adenosine A1 receptor
T8 sequence (P30542 whole entry): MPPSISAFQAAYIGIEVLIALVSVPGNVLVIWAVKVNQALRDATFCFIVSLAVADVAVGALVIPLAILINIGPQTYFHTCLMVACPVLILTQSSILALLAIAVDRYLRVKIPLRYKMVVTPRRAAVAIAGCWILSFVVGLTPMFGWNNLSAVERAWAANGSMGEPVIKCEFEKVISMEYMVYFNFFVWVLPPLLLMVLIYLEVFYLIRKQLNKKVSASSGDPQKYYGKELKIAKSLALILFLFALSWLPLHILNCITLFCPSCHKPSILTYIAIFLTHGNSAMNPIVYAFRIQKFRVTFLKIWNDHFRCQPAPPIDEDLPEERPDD

Adenosine receptor A3 [9] = molecular target: T4, Adenosine receptor A3; assay: Binding affinity to human adenosine A3 receptor
Adenosine receptor A2a [10] = molecular target: T2, Adenosine receptor A2a; remark: listed apart in the source
Description: Binding affinity to rat adenosine A2A receptor

Adenosine receptor A1 [11] = molecular target: T1, Adenosine receptor A1; assay: Binding affinity to rat adenosine A1 receptor
Adenosine receptor A2a [12] = molecular target: Adenosine receptor A2a (Cavia porcellus, UniProt P46616); assay: Binding affinity to guinea pig adenosine A2A receptor
Adenosine receptor A1 [13] = molecular target: T9, Adenosine receptor A1 (Mus musculus, UniProt Q60612); assay: Binding affinity to mouse adenosine A1 receptor
T9 sequence (Q60612 whole entry): T1 sequence (P25099 whole entry) with V151E, D155A, R157I, D316E, L319I, E325D

Adenosine receptor A1 [14] = molecular target: T10, Adenosine receptor A1 (Cavia porcellus, UniProt P47745); assay: Binding affinity to guinea pig adenosine A1 receptor
T10 sequence (P47745 whole entry): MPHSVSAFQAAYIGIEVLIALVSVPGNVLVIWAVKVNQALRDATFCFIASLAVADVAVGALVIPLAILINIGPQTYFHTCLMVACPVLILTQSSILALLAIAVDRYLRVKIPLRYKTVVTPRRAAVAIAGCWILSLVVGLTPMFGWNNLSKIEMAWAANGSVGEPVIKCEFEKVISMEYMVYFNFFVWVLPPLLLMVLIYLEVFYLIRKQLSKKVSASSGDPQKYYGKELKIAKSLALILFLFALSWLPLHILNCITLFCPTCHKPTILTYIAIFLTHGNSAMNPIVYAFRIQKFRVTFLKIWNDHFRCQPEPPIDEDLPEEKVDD

Adenosine receptor A2a [15] = molecular target: Adenosine receptor A2a (Homo sapiens, UniProt P29274); assay: Displacement of [3H]MSX2 from human adenosine A2A receptor expressed in CHO cells; format: cell-based
Adenosine receptor A1 [16] = molecular target: T1, Adenosine receptor A1; assay: Displacement of [3H]DPCPX from adenosine A1 receptor in rat brain cortical membrane in presence of 100 uM GTP; format: cell membranes
[17] = molecular target: T3, Adenosine receptor A1 (Rattus norvegicus); assay: Potency shift, ratio of IC50 for rat brain cortical membrane adenosine A1 receptor in presence of 100 uM GTP to C50 for rat brain cortical membrane adenosine A1 receptor in absence of 100 uM GTP
Adenosine receptor A1 [18] = molecular target: T8, Adenosine receptor A1; assay: Displacement of [3H]CCPA from human adenosine A1 receptor expressed in CHO cells; format: cell-based
Adenosine receptor A1 [19] = molecular target: T1, Adenosine receptor A1; assay: Displacement of [3H]DPCPX from adenosine A1 receptor in rat brain cortical membrane in absence of 100 uM GTP; format: cell membranes

T2 sequence (P30543 whole entry): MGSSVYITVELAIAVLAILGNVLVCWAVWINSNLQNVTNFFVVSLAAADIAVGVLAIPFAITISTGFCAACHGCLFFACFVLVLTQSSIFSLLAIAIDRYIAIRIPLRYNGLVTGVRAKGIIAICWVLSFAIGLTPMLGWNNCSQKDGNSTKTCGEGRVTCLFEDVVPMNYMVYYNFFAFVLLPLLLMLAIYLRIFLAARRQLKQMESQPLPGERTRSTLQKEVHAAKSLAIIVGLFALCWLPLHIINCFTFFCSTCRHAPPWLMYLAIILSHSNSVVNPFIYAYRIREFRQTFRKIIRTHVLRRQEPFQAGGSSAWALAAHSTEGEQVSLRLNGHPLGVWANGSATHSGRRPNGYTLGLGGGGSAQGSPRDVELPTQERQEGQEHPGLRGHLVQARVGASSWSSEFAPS
Adenosine receptor A2a (Rattus norvegicus), sequence (P30543 whole entry): as above
Adenosine receptor A2a (Cavia porcellus, UniProt P46616), sequence (P46616 whole entry): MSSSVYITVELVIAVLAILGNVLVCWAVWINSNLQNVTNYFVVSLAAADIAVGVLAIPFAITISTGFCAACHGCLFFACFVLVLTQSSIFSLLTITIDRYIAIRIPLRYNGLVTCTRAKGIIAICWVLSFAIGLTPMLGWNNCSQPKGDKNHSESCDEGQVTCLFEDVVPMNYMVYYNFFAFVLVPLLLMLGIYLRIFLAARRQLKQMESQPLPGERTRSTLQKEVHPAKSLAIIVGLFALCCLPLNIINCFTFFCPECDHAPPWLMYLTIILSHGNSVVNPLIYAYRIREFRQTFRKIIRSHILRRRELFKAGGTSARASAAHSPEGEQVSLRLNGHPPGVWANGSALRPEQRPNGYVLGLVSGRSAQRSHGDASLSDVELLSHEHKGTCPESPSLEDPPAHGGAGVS
Adenosine receptor A2a (Homo sapiens, UniProt P29274), sequence (P29274 whole entry): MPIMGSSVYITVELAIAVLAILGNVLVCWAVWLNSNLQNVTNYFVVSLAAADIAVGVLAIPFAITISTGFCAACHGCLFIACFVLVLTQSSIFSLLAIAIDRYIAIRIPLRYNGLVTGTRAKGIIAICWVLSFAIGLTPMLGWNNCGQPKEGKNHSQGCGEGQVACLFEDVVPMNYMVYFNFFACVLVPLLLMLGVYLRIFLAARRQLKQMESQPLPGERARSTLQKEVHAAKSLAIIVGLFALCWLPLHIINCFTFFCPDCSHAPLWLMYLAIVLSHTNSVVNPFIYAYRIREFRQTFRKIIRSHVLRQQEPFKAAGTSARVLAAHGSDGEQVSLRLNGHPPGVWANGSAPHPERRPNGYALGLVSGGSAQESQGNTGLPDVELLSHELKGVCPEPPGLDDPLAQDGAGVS

| Compound | Ki (Adenosine receptor A1 [1]) [nM] | Ki (Adenosine receptor A2a [2]) [nM] | inhibition [3] [%] | Ki (Adenosine receptor A3 [4]) [nM] | inhibition [5] [%] | Ki (Adenosine receptor A2b) [nM] | inhibition [6] [%] | inhibition [7] [%] | further results |
| --- | --- | --- | --- | --- | --- | --- | --- | --- | --- |
| O=C(c1ccccc1)c1sc(Nc2ccccc2)nc1-c1ccccc1 | > 1000 | > 1000 | < 30 | > 1000 | < 30 | 337 | < 30 | – | – |
| CS(=O)(=O)c1ccc(C(=O)c2sc(NC(=O)c3ccccc3)nc2-c2ccccc2)cc1 | > 1000 | > 1000 | < 30 | > 1000 | < 30 | > 1000 | < 30 | < 30 | – |
| CNc1nc(-c2ccccc2)c(C(=O)c2ccc(Cl)cc2)s1 | > 1000 | > 1000 | < 30 | > 1000 | < 30 | > 1000 | < 30 | < 30 | – |
| CNc1nc(-c2ccccc2)c(C(=O)c2ccc(OC)cc2)s1 | > 1000 | > 1000 | < 30 | > 1000 | < 30 | > 1000 | < 30 | < 30 | – |
| Cc1ccc(C(=O)Nc2nc(-c3ccccc3)c(C(=O)c3ccccc3)s2)cc1 | > 1000 | > 1000 | < 30 | > 1000 | < 30 | > 1000 | < 30 | 40 | – |
| Cc1ccc(C(=O)Nc2nc(-c3ccccc3)c(C(=O)c3ccc(Cl)cc3)s2)cc1 | > 1000 | > 1000 | < 30 | > 1000 | < 30 | > 1000 | < 30 | < 30 | – |
| O=C(c1ccccc1)c1sc(NCCc2cccs2)nc1-c1ccco1 | – | – | – | – | – | – | – | – | Ki (Adenosine receptor A1 [8]): > 6700 nM |
| CCOC(=O)Nc1nc(-c2ccccc2)c(C(=O)c2ccccc2)s1 | 72.9 | 1640 | – | 206 | – | 391 | – | – | – |
| OC[C@H]1O[C@@H](n2cnc3c(NC4CCCC4)ncnc32)[C@H](O)[C@@H]1O [N6-CYCLOPENTYLADENOSINE] | – | 2470 | – | 3250 | – | – | – | – | – |
| CNc1nc(-c2ccccc2)c(C(=O)c2ccccc2)s1 | > 1000 | > 1000 | < 30 | > 1000 | < 30 | > 1000 | < 30 | < 30 | – |
| CCOC(=O)Nc1nc(-c2ccccc2)c(C(=O)c2ccc(OC)cc2)s1 | 69.9 | 1840 | – | 98.8 | – | > 1000 | – | < 30 | – |
| CCCn1c(=O)c2[nH]c(C34CCC(CCC(=O)O)(CC3)CC4)nc2n(CCC)c1=O [TONAPOFYLLINE] | – | – | – | – | – | – | – | – | Ki (Adenosine receptor A3 [9]): 10000 nM; Ki (Adenosine receptor A2a [10]): 2440 nM; Ki (Adenosine receptor A1 [11]): 1.3 nM |
| COc1ccc(C(=O)c2sc(Nc3ccccc3)nc2-c2ccccc2)cc1 | – | – | < 30 | – | < 30 | – | < 30 | 39 | – |
| CS(=O)(=O)c1ccc(C(=O)c2sc(Nc3ccccc3)nc2-c2ccccc2)cc1 | > 1000 | > 1000 | < 30 | > 1000 | < 30 | > 1000 | < 30 | < 30 | – |
| COc1ccc(C(=O)c2sc(NC(=O)c3ccccc3)nc2-c2ccccc2)cc1 | 7.15 | > 1000 | – | 1000 | 56 | > 1000 | < 30 | < 30 | – |
| CCCn1c(=O)c2[nH]c(C34CC5CC(CC3C5)C4)nc2n(CCC)c1=O [ROLOFYLLINE] | – | – | – | – | – | – | – | – | Ki (Adenosine receptor A2a [12]): 230 nM; Ki (Adenosine receptor A2a [10]): 170 nM |
| OC1CCC(Nc2nc(-c3ccccc3)nc3[nH]ccc23)CC1 (centres undefined) [DERENOFYLLINE] | – | – | – | – | – | – | – | – | Ki (Adenosine receptor A3 [9]): 200 nM; Ki (Adenosine receptor A2a [10]): 501 nM; Ki (Adenosine receptor A1 [11]): 2.51 nM; Ki (Adenosine receptor A1 [8]): 1 nM |
| O=C(Nc1nc(-c2ccccc2)c(C(=O)c2ccccc2)s1)c1ccccc1 | 9.51 | 3030 | – | 354 | – | > 1000 | – | < 30 | – |
| Cc1ccc(C(=O)c2sc(Nc3ccccc3)nc2-c2ccccc2)cc1 | > 1000 | > 1000 | < 30 | > 1000 | < 30 | > 1000 | < 30 | < 30 | – |
| O=C(/C=C/c1c(-c2ccccc2)nn2ccccc12)N1CCCC[C@@H]1CCO [FK453] | – | – | – | – | – | – | – | – | IC50 (Adenosine receptor A2a [12]): 1180 nM; Ki (Adenosine receptor A1 [13]): 0.55 nM; IC50 (Adenosine receptor A1 [14]): 0.56 nM |
| Cc1ccc(C(=O)c2sc(NC(=O)c3ccccc3)nc2-c2ccccc2)cc1 | 4.83 | > 1000 | – | 2160 | – | > 1000 | < 30 | < 30 | Ki (Adenosine receptor A2a [15]): 6250 nM; IC50 (Adenosine receptor A1 [16]): 22.3 nM; Ratio IC50 [17]: 0.99; Ki (Adenosine receptor A1 [18]): 57.4 nM; IC50 (Adenosine receptor A1 [19]): 22.1 nM |
| O=C(Nc1nc(-c2ccccc2)c(C(=O)c2ccccc2)s1)c1ccco1 | 5.77 | 662 | – | 208 | – | > 1000 | – | < 30 | Ki (Adenosine receptor A2a [15]): 348 nM; IC50 (Adenosine receptor A1 [16]): 28.8 nM; Ratio IC50 [17]: 1.2; Ki (Adenosine receptor A1 [18]): 54.3 nM; IC50 (Adenosine receptor A1 [19]): 25.4 nM |
| CCOC(=O)Nc1nc(-c2ccccc2)c(C(=O)c2ccc(Cl)cc2)s1 | 1000 | > 1000 | 41 | 487 | – | > 1000 | < 30 | < 30 | – |
| O=C(Nc1nc(-c2ccccc2)c(C(=O)c2ccc(Cl)cc2)s1)c1ccco1 | 12 | > 1000 | – | 619 | – | > 1000 | < 30 | < 30 | – |
| O=C(O)CCCn1nc(-c2c(-c3ccccc3)nn3ccccc23)ccc1=O | – | – | – | – | – | – | – | – | Ki (Adenosine receptor A2a [10]): 1200 nM; Ki (Adenosine receptor A1 [13]): 10.2 nM; Ki (Adenosine receptor A1 [8]): 12 nM; Ki (Adenosine receptor A1 [14]): 10 nM |
